Reference: patent US20100010219A1, “METHOD FOR PRODUCING PYRROLIDINE COMPOUND” (JAPAN TOBACCO INC., priority 2006, published 2010)
Where a name gives a salt, the structure may show the parent alone.

Target: T1, human HSD-1 (recombinant HSD-1) (Homo sapiens, UniProt P28845)
T1 construct: made in house
Test: HSD-1 activity inhibitory action in vitro (SPA, conversion of cortisone to cortisol)
Type: biochemical
Conditions: recombinant human HSD-1 expressed using baculovirus system; 10 nM 3H cortisone, 500 μM NADPH; room temperature 90 to 120 min; read-out: hHSD1 (IC50 (nM))

T1 sequence (P28845 whole entry): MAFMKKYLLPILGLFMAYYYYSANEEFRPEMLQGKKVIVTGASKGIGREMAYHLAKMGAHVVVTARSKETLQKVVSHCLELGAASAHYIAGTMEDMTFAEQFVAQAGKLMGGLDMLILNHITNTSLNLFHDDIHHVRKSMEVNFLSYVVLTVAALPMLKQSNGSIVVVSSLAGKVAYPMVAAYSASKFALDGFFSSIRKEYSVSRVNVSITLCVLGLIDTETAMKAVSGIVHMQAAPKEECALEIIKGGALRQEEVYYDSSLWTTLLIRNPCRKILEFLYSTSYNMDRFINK

Row | SMILES | IC50
1 | C[C@@H]1CN(C(=O)c2cnn(C3CCN(c4ncccn4)CC3)c2C2(C)CC2)C[C@H]1c1ccccc1 (relative stereo) [Example 177, {(3S*,4R*)-3-methyl-1-{5-(1-methylcyclopropyl)-1-[1-(pyrimidin-2-yl)piperidin-4-yl]-1H-pyrazole-4-carbonyl}-4-phenylpyrrolidine hydrochloride] | < 30 nM
2 | CC1(c2c(C(=O)N3CCC(CO)(c4ccc(F)cc4)C3)cnn2C2CCN(c3ncccn3)CC2)CC1 (single isomer, unassigned; (+)) [Example 128, (+)-3-(4-fluorophenyl)-3-hydroxymethyl-1-{5-(1-methylcyclopropyl)-1-[1-(pyrimidin-2-yl)piperidin-4-yl]-1H-pyrazole-4-carbonyl}pyrrolidine hydrochloride] | < 30 nM
3 | O=C(c1cnn(C2CCNCC2)c1C1CC1)N1CC[C@@H](c2ccccc2C(F)(F)F)C1 [Example 2, 1-[5-cyclopropyl-1-(piperidin-4-yl)-1H-pyrazole-4-carbonyl]-[(S)-3-(2-trifluoromethylphenyl)]pyrrolidine hydrochloride] | < 30 nM
4 | O=C(Nc1ccccc1F)N1CCC(n2ncc(C(=O)N3CCC(c4cccnc4)C3)c2C2CC2)CC1 (stereo not drawn) [Example 3, 1-{5-cyclopropyl-1-[1-(2-fluorophenylcarbamoyl)piperidin-4-yl]-1H-pyrazole-4-carbonyl}-3-(pyridin-3-yl)pyrrolidine] | < 30 nM
5 | NC(=O)N1CCC(n2ncc(C(=O)N3CC[C@@H](c4ccccc4C(F)(F)F)C3)c2C2CC2)CC1 [Example 4, 1-[1-(1-carbamoylpiperidin-4-yl)-5-cyclopropyl-1H-pyrazole-4-carbonyl]-[(S)-3-(2-trifluoromethylphenyl)]pyrrolidine] | < 30 nM
6 | O=C(Nc1ccccc1CO)N1CCC(n2ncc(C(=O)N3CC[C@@H](c4ccccc4C(F)(F)F)C3)c2C2CC2)CC1 [Example 6, 1-{5-cyclopropyl-1-[1-(2-hydroxymethylphenylcarbamoyl)piperidin-4-yl]-1H-pyrazole-4-carbonyl}-[(S)-3-(2-trifluoromethylphenyl)]pyrrolidine] | < 30 nM
7 | O=C(NC1(CO)CC1)N1CCC(n2ncc(C(=O)N3CC[C@@H](c4ccccc4C(F)(F)F)C3)c2C2CC2)CC1 [Example 7, 1-{5-cyclopropyl-1-[1-(1-hydroxymethylcyclopropylcarbamoyl)piperidin-4-yl]-1H-pyrazole-4-carbonyl}-[(S)-3-(2-trifluoromethylphenyl)]pyrrolidine] | < 30 nM
8 | O=C(NCCO)N1CCC(n2ncc(C(=O)N3CC[C@@H](c4ccccc4C(F)(F)F)C3)c2C2CC2)CC1 [Example 8, 1-{5-cyclopropyl-1-[1-(2-hydroxyethylcarbamoyl)piperidin-4-yl]-1H-pyrazole-4-carbonyl}-[(S)-3-(2-trifluoromethylphenyl)]pyrrolidine] | < 30 nM
9 | CC(C)(CO)NC(=O)N1CCC(n2ncc(C(=O)N3CC[C@@H](c4ccccc4C(F)(F)F)C3)c2C2CC2)CC1 [Example 9, 1-{5-cyclopropyl-1-[1-(2-hydroxy-1,1-dimethylethylcarbamoyl)piperidin-4-yl]-1H-pyrazole-4-carbonyl}-[(S)-3-(2-trifluoromethylphenyl)]pyrrolidine] | < 30 nM
10 | CC(=O)NCCNC(=O)N1CCC(n2ncc(C(=O)N3CC[C@@H](c4ccccc4C(F)(F)F)C3)c2C2CC2)CC1 [Example 10, 1-{1-[1-(2-acetylaminoethylcarbamoyl)piperidin-4-yl]-5-cyclopropyl-1H-pyrazole-4-carbonyl}-[(S)-3-(2-trifluoromethylphenyl)]pyrrolidine] | < 30 nM
11 | NCCNC(=O)N1CCC(n2ncc(C(=O)N3CC[C@@H](c4ccccc4C(F)(F)F)C3)c2C2CC2)CC1 [Example 11, 1-{1-[1-(2-aminoethylcarbamoyl)piperidin-4-yl]-5-cyclopropyl-1H-pyrazole-4-carbonyl}-[(S)-3-(2-trifluoromethylphenyl)]pyrrolidine hydrochloride] | < 30 nM
12 | O=C(c1cnn(C2CCN(C(=O)N3CCS(=O)(=O)CC3)CC2)c1C1CC1)N1CC[C@@H](c2ccccc2C(F)(F)F)C1 [Example 12, 1-{5-cyclopropyl-1-[1-(1,1-dioxothiomorpholine-4-carbonyl)piperidin-4-yl]-1H-pyrazole-4-carbonyl}-[(S)-3-(2-trifluoromethylphenyl)]pyrrolidine] | < 30 nM
13 | CN(C)CCNC(=O)N1CCC(n2ncc(C(=O)N3CC[C@@H](c4ccccc4C(F)(F)F)C3)c2C2CC2)CC1 [Example 13, 1-{5-cyclopropyl-1-[1-(2-dimethylaminoethylcarbamoyl)piperidin-4-yl]-1H-pyrazole-4-carbonyl}-[(S)-3-(2-trifluoromethylphenyl)]pyrrolidine hydrochloride] | < 30 nM
14 | O=C(c1cnn(C2CCN(C(=O)N3CCC(O)CC3)CC2)c1C1CC1)N1CC[C@@H](c2ccccc2C(F)(F)F)C1 [Example 14, 1-{5-cyclopropyl-1-[1-(4-hydroxypiperidine-1-carbonyl)piperidin-4-yl]-1H-pyrazole-4-carbonyl}-[(S)-3-(2-trifluoromethylphenyl)]pyrrolidine] | < 30 nM
15 | O=C(c1cnn(C2CCN(C(=O)N3CCC3)CC2)c1C1CC1)N1CC[C@@H](c2ccccc2C(F)(F)F)C1 [Example 15, 1-{1-[1-(azetidine-1-carbonyl)piperidin-4-yl]-5-cyclopropyl-1H-pyrazole-4-carbonyl}-[(S)-3-(2-trifluoromethylphenyl)]pyrrolidine] | < 30 nM
16 | O=C(c1cnn(C2CCN(C(=O)N3CCC(O)C3)CC2)c1C1CC1)N1CC[C@@H](c2ccccc2C(F)(F)F)C1 (stereo partly drawn) [Example 16, 1-{5-cyclopropyl-1-[1-(3-hydroxypyrrolidine-1-carbonyl)piperidin-4-yl]-1H-pyrazole-4-carbonyl}-[(S)-3-(2-trifluoromethylphenyl)]pyrrolidine] | < 30 nM
17 | O=C(NCCN1CCCCC1)N1CCC(n2ncc(C(=O)N3CC[C@@H](c4ccccc4C(F)(F)F)C3)c2C2CC2)CC1 [Example 17, 1-{5-cyclopropyl-1-[1-(2-piperidin-1-yl-ethylcarbamoyl)piperidin-4-yl]-1H-pyrazole-4-carbonyl}-[(S)-3-(2-trifluoromethylphenyl)]pyrrolidine hydrochloride] | < 30 nM
18 | O=C(c1cnn(C2CCN(C(=O)N3CCC(F)(F)CC3)CC2)c1C1CC1)N1CC[C@@H](c2ccccc2C(F)(F)F)C1 [Example 18, 1-{5-cyclopropyl-1-[1-(4,4-difluoropiperidine-1-carbonyl)piperidin-4-yl]-1H-pyrazole-4-carbonyl}-[(S)-3-(2-trifluoromethylphenyl)]pyrrolidine] | < 30 nM
19 | O=C(c1cnn(C2CCN(C(=O)N3CCC(F)(F)C3)CC2)c1C1CC1)N1CC[C@@H](c2ccccc2C(F)(F)F)C1 [Example 19, 1-{5-cyclopropyl-1-[1-(3,3-difluoropyrrolidine-1-carbonyl)piperidin-4-yl]-1H-pyrazole-4-carbonyl}-[(S)-3-(2-trifluoromethylphenyl)]pyrrolidine] | < 30 nM
20 | O=C(c1cnn(C2CCN(C(=O)N3CC(O)C3)CC2)c1C1CC1)N1CC[C@@H](c2ccccc2C(F)(F)F)C1 [Example 20, 1-{5-cyclopropyl-1-[1-(3-hydroxyazetidine-1-carbonyl)piperidin-4-yl]-1H-pyrazole-4-carbonyl}-[(S)-3-(2-trifluoromethylphenyl)]pyrrolidine] | < 30 nM
21 | O=C(c1cnn(C2CCN(C(=O)N3CC[C@@H](O)C3)CC2)c1C1CC1)N1CC[C@@H](c2ccccc2C(F)(F)F)C1 [Example 21, 1-(5-cyclopropyl-1-{1-[(R)-3-hydroxypyrrolidine-1-carbonyl]piperidin-4-yl}-1H-pyrazole-4-carbonyl)-[(S)-3-(2-trifluoromethylphenyl)]pyrrolidine] | < 30 nM
22 | O=C(c1cnn(C2CCN(C(=O)N3CC[C@H](O)C3)CC2)c1C1CC1)N1CC[C@@H](c2ccccc2C(F)(F)F)C1 [Example 22, 1-(5-cyclopropyl-1-{1-[(S)-3-hydroxypyrrolidine-1-carbonyl]piperidin-4-yl}-1H-pyrazole-4-carbonyl)-[(S)-3-(2-trifluoromethylphenyl)]pyrrolidine] | < 30 nM
23 | C[C@@H](CO)NC(=O)N1CCC(n2ncc(C(=O)N3CC[C@@H](c4ccccc4C(F)(F)F)C3)c2C2CC2)CC1 [Example 23, 1-(5-cyclopropyl-1-{1-[(S)-2-hydroxy-1-methylethylcarbamoyl]piperidin-4-yl}-1H-pyrazole-4-carbonyl)-[(S)-3-(2-trifluoromethylphenyl)]pyrrolidine] | < 30 nM
24 | O=C(c1cnn(C2CCN(C(=O)N3CCC(CO)CC3)CC2)c1C1CC1)N1CC[C@@H](c2ccccc2C(F)(F)F)C1 [Example 24, 1-{5-cyclopropyl-1-[1-(4-hydroxymethylpiperidine-1-carbonyl)piperidin-4-yl]-1H-pyrazole-4-carbonyl}-[(S)-3-(2-trifluoromethylphenyl)]pyrrolidine] | < 30 nM
25 | O=C(O)C1CCN(C(=O)N2CCC(n3ncc(C(=O)N4CC[C@@H](c5ccccc5C(F)(F)F)C4)c3C3CC3)CC2)CC1 [Example 25, 1-{1-[1-(4-carboxypiperidine-1-carbonyl)piperidin-4-yl]-5-cyclopropyl-1H-pyrazole-4-carbonyl}-[(S)-3-(2-trifluoromethylphenyl)]pyrrolidine] | < 30 nM
26 | O=C1CN(C(=O)N2CCC(n3ncc(C(=O)N4CC[C@@H](c5ccccc5C(F)(F)F)C4)c3C3CC3)CC2)CCN1 [Example 26, 1-{5-cyclopropyl-1-[1-(3-oxopiperazine-1-carbonyl)piperidin-4-yl]-1H-pyrazole-4-carbonyl}-[(S)-3-(2-trifluoromethylphenyl)]pyrrolidine] | < 30 nM
27 | O=C(c1cnn(C2CCN(C(=O)N3CCC[C@H]3CO)CC2)c1C1CC1)N1CC[C@@H](c2ccccc2C(F)(F)F)C1 [Example 27, 1-(5-cyclopropyl-1-{1-[(S)-2-hydroxymethylpyrrolidine-1-carbonyl]piperidin-4-yl}-1H-pyrazole-4-carbonyl)-[(S)-3-(2-trifluoromethylphenyl)]pyrrolidine] | < 30 nM
